According to patent US7851641B2, “Compounds useful for treating neurodegenerative disorders” (Satori Pharmaceuticals, Inc., priority 2005, dated 2010):

How the values were obtained:
[1] = test system: amyloid-β (1-42) peptide; assay: IP-MS quantification of amyloid-β peptides (Wang et al protocol); type: cell-based; conditions: in vitro, FIG. 21
Experimental: (§1) Compounds of the present invention were assayed to determine their effect on the total ration of amyloid-β (1-42) peptide in vitro using an assay protocol substantially similar to that described by Wang et al, J. Biol. Chem. 1996, 50:31894-31902, The Profile of Soluble Amyloid β Protein in Cultured Cell Media, the entirety of which is hereby incorporated herein by reference. This assay quantifies amyloid-β protein using immunoprecipitation and mass spectrometry (IP-MS).

[2] = test system: amyloid-β (1-42) peptide; assay: IP-MS quantification of amyloid-β peptides in 7W cells (APPwt) and 7PA2 cells (APPV717F); type: cell-based; conditions: FIG. 22
Experimental: as §1
Compound 6 was also assayed according to the method described in Wang et al, in 7W cells (APPwt) and 7PA2 cells (APPV717F). The APP717 mutations increase the relative amount of amyloid-β (1-42) peptide. In this assay, it was shown that compound 6 reduces amyloid-β (1-42) peptide while increasing amyloid-β (1-39) peptide.

Structure (SMILES): CC(=O)O[C@@H]([C@H]1C[C@@H](C)C2=C(O1)[C@H](O)[C@@]1(C)[C@@H]3CC[C@H]4C(C)(C)[C@@H](O[C@@H]5OC[C@@H](O)[C@H](O)[C@H]5O)CC[C@@]45C[C@@]35CC[C@]21C)C(C)(C)O [Compound 6, 24-O-Acetylhydroshengmanol 3-β-D-xylopyranoside (delta-16,17)-enol ether]
- effect on amyloid-β (1-37) peptide [1]: increasing
- effect on amyloid-β (1-39) peptide [1]: increasing
- effect on amyloid-β (1-42) peptide [1]: reduced
- effect on amyloid-β (1-39) peptide [2]: increasing
- effect on amyloid-β (1-42) peptide [2]: reduces
